Assays:
[1] = Particle size distribution of FAM dispersions and redispersed FAM tablets (NanoSight LM10); assay type: physicochemical
Method: The characterization of the FAM tablets and their redispersion were evaluated in accordance with our previous study ([Deguchi et al., 2021]; [Nagai et al., 2022]). Briefly, the shape and dimensions of the tablets were analyzed using ImageJ image analysis software 1.53. Hardness was measured using a Force Tester MCT-2150 (A&D Co., Ltd., Toshimaku, Japan), and friability was measured using an Oriental Reaction Motor (ORIENTAL MOTOR Co., Ltd., Tokyo, Japan). The disintegration of FAM tablets was evaluated using NT-2H (TOYAMA SANGO Co. Ltd., Osaka, Japan). The friability and disintegration of the FAM tablets were measured according to the Japanese Pharmacopoeia (18th edition). The FAM tablets were dispersed in 10 mL of purified water and the redispersion, solubility, viscosity, and intestinal penetration were measured. The particle distributions of the FAM dispersions and redispersed FAM tablets were measured by […] NanoSight LM10 (Quantum Design Japan, Tokyo, Japan), and the measurement time, wavelength, and viscosity were set to 60 s, 405 nm (blue) and 1.27 mPa s, respectively. Scanning electron microscopy (SEM) images were obtained using NeoScope™ JCM-7000 (JEOL Ltd., Tokyo, Japan). […] The viscosity of the redispersed FAM tablet was measured at 20°C–40°C using an SV-1A viscometer (A&D Company, Limited, Tokyo, Japan).

[2] = Pharmacokinetic study of FAM tablet in the rat; assay type: in vivo, Wistar rats; settings: Wistar, plasma, intravenous, single injection of FAM solution in DMSO (0.04 mg/kg) into the femoral vein
Method: FAM concentration was determined by HPLC using an LC-20AT HPLC system (Shimadzu Corp., Kyoto, Japan). A Luna® 5 µm C18 column (100 Å, 150 × 4.6 mm, GL Science Co., Inc., Tokyo, Japan) was used for the measurement, and the mobile phase [one-heptanesulfonic acid sodium salt/acetonitrile/methanol (25/6/1)] was followed at 0.25 mL/min. The sample was mixed with an internal standard (methyl p-hydroxybenzoate) in methanol and 10 µL of the mixture was injected into the HPLC system using an SIL-20AC HPLC auto injector. In this study, the FAM levels were measured at 254 nm (wavelength for detection).
Blood (200 μL) was collected from the right jugular vein at the indicated time intervals (0, 10, 20, 30, and 360 min). The collected blood was centrifuged at 800 × g for 15 min at 4°C, and the supernatant was used for measurement.

[3] = without bead-milling treatment
Method: First, 3 mL of each FAM dispersion were incubated in 5 mL test tubes in the dark at 20°C for 28 days. Images of the FAM dispersions were captured with a digital camera. The dispersions (50 μL) were withdrawn from 5 mm under the surface at the indicated time intervals (0, 7, 14, 21, and 28 days), and the FAM concentration was measured using the HPLC methods described above. In this study, the difference in FAM concentrations before and after the start of the experiment was estimated, and the changes in FAM levels on the surface were defined as the dispersibility of the FAM dispersions.

H2 receptors = settings: ref Hassan et al., 1990; Patel and Patel, 2013; cited from earlier work
[4] = ref Jha et al., 2014; cited from earlier work
[5] = oral, 40 mg daily; ref Lyon, 1986; Ramchandran et al., 2011; cited from earlier work
[6] = ref Khalifa and Abdul Rasool, 2017; cited from earlier work

Mean particle size of FAM ([1]; dispersion with bead-milling treatment): 108 ± 5.7 nm | Mean particle size of FAM ([1]; dispersion without bead-milling treatment): 23.7 ± 2.1 µm | Vd ([2]; read-out: Distribution volume (V d)): 0.064 L | k el ([2]; read-out: Elimination rate constant (k e) (converted)): 2.17e-05 s⁻¹ | Time after preparation at which FAM was precipitated [3]: 24 h
SMILES: NC(N)=Nc1nc(CSCCC(N)=NS(N)(=O)=O)cs1 [FAM, Famotidine]
Inhibitory effect relative to cimetidine (H2 receptors): 20 fold | Inhibitory effect relative to ranitidine (H2 receptors): 7.5 fold | Intestinal penetration after oral administration [4]: < 50% | Tolerability [5]: well tolerated | BCS classification [6]: class III

— publication PMC10036753, “Orally disintegrating tablets containing famotidine nanoparticles provide high intestinal absorbability via the energy-dependent endocytosis pathway” (Frontiers in Bioengineering and Biotechnology, 2023)
